Reference: patent EP1923473B1, “Bis-diglycolamides (BISDGA) as new extractants for lanthanides [Ln(III)] and actinides [An(III)] from aqueous high-level wastes” (Universidad Autónoma de Madrid, priority 2006, dated 2008)

Assay: Batch extraction from simulated HLLW from the PUREX process
Type: physicochemical
Settings: 0.1 mol/L in TPH/1-octanol (90:10)
Excerpt: The feed solution used for the extraction tests is a simulated solution of an HLLW from the PUREX process, the composition of which is shown in Table 4. Table 4: Composition of the simulated HLLW-PUREX solution used for the extraction tests
The composition of the HLLW corresponds to a burn-up of 33 GWd/tHM, the generated volume of HLLW being 5000 1/t of fuel. The feed was spiked with ^241Am, ^244Cm, ^252Cf and ^152Eu. Oxalic acid and N-(2-hydroxyethyl)ethylenediaminotriacetate (HEDTA) were also added before the extraction tests.
500 µL of the aqueous and organic phases were spiked with 10 µL of a tracer solution containing 241Am, 244Cm, 252Cf and ^152Eu, and were equilibrated for 10 minutes while they were stirred vigorously in a vortex stirrer. After the separation of the phases by centrifugation, 200 µL aliquots of each phase were taken for the determination of the concentration of ^241Am and ^152Eu using a high-purity germanium spectrometer system (EG&G Ortec). The nuclides ^241Am, ^244Cm and ^252Cf were measured by alpha spectrometry with an α-Analyst device of the company Canberra-Packard GmbH, Germany.
The concentrations of the stable elements were determined by mass spectrometry with an inductively coupled plasma source (ICP-MS) in a DRC Elan 6100 device of Perkin Elmer Sciex. The aqueous phase was measured directly after the appropriate dilution. The organic phase was analyzed after having mineralized the organic matter by microwave acid digestion and subsequent dilution.
The distribution coefficients were calculated for each element according to section C).
A 0.1 mol/L solution of compound 4 in the "TPH/1-octanol (90:10)%vol" mixture was prepared. Extraction experiments were carried out with said simulated HLLW in a pure form and also adding oxalic acid and HEDTA to it. These complexing agents have shown to be effective in the DIAMEX process for the complexing of Mo, Zr (H2C2O4) and Pd (HEDTA).
Extraction experiments were carried out with said simulated HLLW in a pure form and also adding oxalic acid and HEDTA to it.

[1] = Oxalic acid 0.2 mol/L, HEDTA 0.05 mol/L, TBP 0.5 mol/L
[2] = Oxalic acid 0.2 mol/L, HEDTA 0.05 mol/L, TBP No
[3] = Oxalic acid 0.3 mol/L, HEDTA 0.05 mol/L, TBP 0.5 mol/L
[4] = Oxalic acid 0.3 mol/L, HEDTA 0.05 mol/L, TBP No
[5] = Oxalic acid No, HEDTA No, TBP 0.5 mol/L
[6] = Oxalic acid No, HEDTA No, TBP No

2-Dioctylcarbamoylmethoxy-N-[3-[(2-dioctylcarbamoyl-methoxy-acetylamino)methyl]benzyl]acetamide [Compound 4]
Distribution coefficients Ag [1]: 0.013 | Distribution coefficients Ba [1]: 0.0002 | Distribution coefficients Cd [1]: 0.035 | Distribution coefficients Ce [1]: 16 | Distribution coefficients Cf-252 [1]: 702 | Distribution coefficients Cm-244 [1]: 83 | Distribution coefficients Cs [1]: 0.000087 | Distribution coefficients Eu [1]: 362 | Distribution coefficients Eu-152 [1]: 430 | Distribution coefficients Gd [1]: 91 | Distribution coefficients La [1]: 10 | Distribution coefficients Mo [1]: 0.065 | Distribution coefficients Nd [1]: 52 | Distribution coefficients Pd [1]: 0.081 | Distribution coefficients Pr [1]: 26 | Distribution coefficients Rb [1]: 0.0082 | Distribution coefficients Rh [1]: 0.00068 | Distribution coefficients Ru [1]: 0.29 | Distribution coefficients Sm [1]: 253 | Distribution coefficients Y [1]: 1698 | Distribution coefficients Zr [1]: 0.062 | Distribution coefficients Ag [2]: 0.013 | Distribution coefficients Ba [2]: 0.00019 | Distribution coefficients Cd [2]: 0.034 | Distribution coefficients Ce [2]: 36 | Distribution coefficients Cf-252 [2]: 2057 | Distribution coefficients Cm-244 [2]: 262 | Distribution coefficients Cs [2]: 0.000087 | Distribution coefficients Eu [2]: 764 | Distribution coefficients Eu-152 [2]: 379 | Distribution coefficients Gd [2]: 239 | Distribution coefficients La [2]: 21 | Distribution coefficients Mo [2]: 0.087 | Distribution coefficients Nd [2]: 142 | Distribution coefficients Pd [2]: 0.073 | Distribution coefficients Pr [2]: 59 | Distribution coefficients Rb [2]: 0.0093 | Distribution coefficients Rh [2]: 0.00086 | Distribution coefficients Ru [2]: 0.29 | Distribution coefficients Sm [2]: 690 | Distribution coefficients Y [2]: 1766 | Distribution coefficients Zr [2]: 0.096 | Distribution coefficients Ag [3]: 0.012 | Distribution coefficients Ba [3]: 0.0002 | Distribution coefficients Cd [3]: 0.036 | Distribution coefficients Ce [3]: 21 | Distribution coefficients Cf-252 [3]: 1403 | Distribution coefficients Cm-244 [3]: 133 | Distribution coefficients Cs [3]: 0.000087 | Distribution coefficients Eu [3]: 446 | Distribution coefficients Eu-152 [3]: 348 | Distribution coefficients Gd [3]: 190 | Distribution coefficients La [3]: 13.7 | Distribution coefficients Mo [3]: 0.094 | Distribution coefficients Nd [3]: 68 | Distribution coefficients Pd [3]: 0.041 | Distribution coefficients Pr [3]: 32 | Distribution coefficients Rb [3]: 0.0081 | Distribution coefficients Rh [3]: 0.00067 | Distribution coefficients Ru [3]: 0.24 | Distribution coefficients Sm [3]: 378 | Distribution coefficients Y [3]: 1658 | Distribution coefficients Zr [3]: 0.022 | Distribution coefficients Ag [4]: 0.013 | Distribution coefficients Ba [4]: 0.0002 | Distribution coefficients Cd [4]: 0.037 | Distribution coefficients Ce [4]: 32 | Distribution coefficients Cf-252 [4]: 1816 | Distribution coefficients Cm-244 [4]: 286 | Distribution coefficients Cs [4]: 0.000604 | Distribution coefficients Eu [4]: 513 | Distribution coefficients Eu-152 [4]: 553 | Distribution coefficients Gd [4]: 258 | Distribution coefficients La [4]: 18 | Distribution coefficients Mo [4]: 0.115 | Distribution coefficients Nd [4]: 120 | Distribution coefficients Pd [4]: 0.043 | Distribution coefficients Pr [4]: 53 | Distribution coefficients Rb [4]: 0.0082 | Distribution coefficients Rh [4]: 0.00069 | Distribution coefficients Ru [4]: 0.17 | Distribution coefficients Sm [4]: 451 | Distribution coefficients Y [4]: 1708 | Distribution coefficients Zr [4]: 0.099 | Distribution coefficients Ag [5]: 39 | Distribution coefficients Ba [5]: 0.00019 | Distribution coefficients Cd [5]: 0.033 | Distribution coefficients Ce [5]: 16 | Distribution coefficients Cf-252 [5]: 692 | Distribution coefficients Cm-244 [5]: 95 | Distribution coefficients Cs [5]: 0.000082 | Distribution coefficients Eu [5]: 327 | Distribution coefficients Eu-152 [5]: 294 | Distribution coefficients Gd [5]: 122 | Distribution coefficients La [5]: 10 | Distribution coefficients Mo [5]: 0.066 | Distribution coefficients Nd [5]: 55 | Distribution coefficients Pd [5]: 2.6 | Distribution coefficients Pr [5]: 26 | Distribution coefficients Rb [5]: 0.0080 | Distribution coefficients Rh [5]: 0.00069 | Distribution coefficients Ru [5]: 0.27 | Distribution coefficients Sm [5]: 233 | Distribution coefficients Y [5]: 1773 | Distribution coefficients Zr [5]: 295 | Distribution coefficients Ag [6]: 37 | Distribution coefficients Ba [6]: 0.00019 | Distribution coefficients Cd [6]: 0.034 | Distribution coefficients Ce [6]: 23 | Distribution coefficients Cf-252 [6]: 2079 | Distribution coefficients Cm-244 [6]: 191 | Distribution coefficients Cs [6]: 0.000084 | Distribution coefficients Eu [6]: 685 | Distribution coefficients Eu-152 [6]: 293 | Distribution coefficients Gd [6]: 166 | Distribution coefficients La [6]: 13 | Distribution coefficients Mo [6]: 0.069 | Distribution coefficients Nd [6]: 94 | Distribution coefficients Pd [6]: 2.5 | Distribution coefficients Pr [6]: 39 | Distribution coefficients Rb [6]: 0.0078 | Distribution coefficients Rh [6]: 0.00066 | Distribution coefficients Ru [6]: 0.25 | Distribution coefficients Sm [6]: 615 | Distribution coefficients Y [6]: 1753 | Distribution coefficients Zr [6]: 133
